Patent publication US20080070952A1, “Inhibition or Treatment of Dyskinesia” (PROXIMAGEN LTD.,, priority 2005, published 2008)

System: L-DOPA primed MPTP treated animals (common marmosets)
Assay: L-DOPA induced motor activity, motor disability and dyskinesia (chorea, dystonia) in L-DOPA primed MPTP treated marmosets
Assay type: in vivo, Callithrix Jacchus
Settings: same protocol as Examples 1-8; NOS inhibitors s.c., Vinyl L-NIO 6 mg/kg, 7-NI 20 mg/kg, L-NIO dose not given
Protocol: In the following procedure, all NOS inhibitors (nNOSi) were administered subcutaneously. All other drugs with the exception of 7-nitroindazole were dissolved in deionised water or for oral administration dissolved in deionised water containing 10% sucrose and were administered orally. 7-nitroindazole was dissolved in a 30:70 v/v in water and DMSO. In experiments using ropinirole, animals were pre-treated with a single oral dose of domperidone (5 mg·kg^−1) as an anti-emetic, 30 min before. Carbidopa and domperidone were given as suspension in deionised water and 10% sucrose.
Adult common marmosets of either sex (Callithrix Jacchus; n=6), weighing between 310 to 380 g were used in this study. Marmosets were housed either in pairs or individually at a temperature of 25±1_ C with 50% relative humidity on a 12-hour light-dark cycle. Animals were fed once daily on a diet of fresh fruit, nuts, Mazuri food pellets, and a supplement of vitamin D3 and had free access to water. On experimental days, the animals were fed following completion of behavioural testing.
Marmosets were treated with 1-methyl-4-phenyl-1,2,3,6-tetrahydropyridine hydrochloride (2.0 mg·kg^−1 subcutaneously; MPTP-HCl; Research Biochemicals International; dissolved in 0.9% sterile saline) daily for 5 consecutive days. This treatment regimen induces a persistent and stable syndrome of akinesia, bradykinesia, rigidity, postural abnormality, incoordination and postural tremor (Jenner and Marsden, 1986; Pearce et al., 1995). Animals were hand fed on a cocktail of Mazuri marmoset jelly, dried milk and pureed bananas until body weight had returned towards pre-treatment levels.
Eight weeks following MPTP-treatment, all animals (n=6) were treated for 30 to 40 days with 12.5 mg·kg^−1 L-DOPA methyl ester (Sigma) plus 12.5 mg·kg^−1 carbidopa (Merck Sharp & Dohme) by oral gavage on a daily basis. Carbidopa was administered 30 to 45 min prior to L-DOPA treatment (Pearce et al., 1995). When animals became dyskinetic, daily dosing with a combination of L-DOPA/carbidopa was changed to a once a week treatment. At this point and on, once a week L-DOPA/carbidopa treatment produced similar level of dyskinesia to that produced at the end of the daily priming period. […]
Motor Activity: Motor activity was measured in test cages equipped with an array of 8 infra red photo sensors (perspex fronted aluminium cages, 50×60×70 cm), The number of beam interruptions due to movement was counted and summed in bins of 10 minute interval using an analogue to digital converter attached to an Intel-based PC. Motor activity was measured over a period of 6 hours and expressed both as time course measuring the number of beam interruption occurring in 10 min time segments, or as the total number of beam interruptions over the test period. […]

Row | SMILES | L-Dopa induced dyskinesia
1 | N=C(N)SCCc1cccc(CCSC(=N)N)c1 [1,3 PB-ITU, S,S′-1,3-Phenylene-bis(1,2-ethanediyl)-bis-isothiourea] | did not reduce
2 | O=[N+]([O-])c1cccc2cn[nH]c12 [7-NI, 7-nitroindazole] | reduced
3 | N=C(N)SCCN [S-(2-aminoethyl)-ITU, S-(2-aminoethyl)-isothiourea] | did not reduce
4 | C=CCC(=N)NCCC[C@H](N)C(=O)O [Vinyl L-NIO, L-N5-(1-imino-3-butenyl)-ornithine] | reduced
